{"source": "patent US20140096445A1", "about": "“METHOD OF CULTIVATION IN WATER DEFICIT CONDITIONS” (SYNGENTA PARTICIPATIONS AG, priority 2011, published 2014)", "type_in_all_cases": "in vivo", "key": {"corn [1]": {"test_system": "corn", "assay": "SDI split plot field study, 115 day maturity corn hybrid, deficit vs fully irrigated, Example 3", "conditions": "261 gai/ha, 50% irrigated deficit"}, "corn [2]": {"test_system": "corn", "assay": "Sprinkler irrigation management field test, full vs deficit irrigation, Examples 9-10", "conditions": "261 gai/ha, 60% irrigated deficit", "protocol": "A completely random test design (split plot) was conducted using Sprinkler Irrigation. This was an irrigation management test to study treatment effects on yield under full irrigation and deficit irrigation conditions. The field study was set up with four replications and tested on silt loam soil. Overhead sprinkler irrigation and overhead sprinkler chemigation was used in this study. Each plot was 4 rows wide (3 meters) by 9.1 meters long. Soil water status was monitored throughout the growing season using soil moisture sensors. Corn seed was planted with a precision planter at a depth of 2 inches and rows spaced at 30 inches. The planting population was 30,000 seeds per acre. Testing parameters, irrigation levels, and harvesting were conducted according to the University of Nebraska experimental procedure (see, e.g.,: Irmak, S, D. Z. Haman, and R. Bastug. Determination of Crop Water Stress Index for irrigation Timing and Yield Estimation of Corn. 2000. Agronomy Journal. 92:1221-1227). Moisture levels, irrigation levels, and plant health were measured throughout the growing season. Climatic variables were measured (air temperature, rainfall, solar and net radiation, relative humidity, rainfall, wind speed and direction) throughout the season. Irrigation for the fully irrigated treatments was scheduled according crop need based on soil water measurements. The deficit irrigation treatments were scheduled at approximately 60% of the fully irrigated plots (1.2 inches/acre vs. 2 inches of water/acre, respectively). Volumetric soil water content was measured on a weekly basis throughout the crop season to determine total water use. Maintenance crop protection products were applied as needed to manage weeds & pests throughout the season for all treatments including the control. Azoxystrobin (Quadris) was applied via overhead sprinkler irrigation at 261 grams active ingredient/hectare or by foliar application (tractor mounted sprayer) at 261 grams active ingredient/hectare at approximately V6 & R1 stages of the corn. Crop yield from each replication was recorded after harvest and adjusted to 15% moisture content."}, "corn [3]": {"test_system": "corn", "assay": "Lateral-move sprinkler irrigation field study, 113 day maturity corn hybrid, Examples 11-12", "conditions": "261 gai/ha, 60% irrigated deficit"}}, "data": [{"smiles": "CO/C=C(/C(=O)OC)c1ccccc1Oc1cc(Oc2ccccc2C#N)ncn1", "note": "[Azoxystrobin, azoxystrobin]", "values": [{"measurement": "Yield", "setting": "corn [1]; foliar twice (V8 & V8+14da.)", "result": 250, "unit": "Bu./acre"}, {"measurement": "Azoxystrobin % IWUE Increase over Untr./50% Irr.", "setting": "corn [1]; foliar", "result": "+3% incr. over"}, {"measurement": "Azoxystrobin % IWUE Increase over Untr./100% Irr.", "setting": "corn [1]; foliar", "result": "+7% incr. over"}, {"measurement": "Azoxystrobin % Yield Increase over Untr./50% Irr.", "setting": "corn [1]; foliar", "result": "+3% incr. over"}, {"measurement": "Azoxystrobin % Yield Increase over Untr./100% Irr.", "setting": "corn [1]; foliar", "result": "+0% incr. over"}, {"measurement": "IWUE (water productivity)", "setting": "corn [1]; foliar", "result": 494, "unit": "lbs./acre in."}, {"measurement": "Yield", "setting": "corn [2]; foliar-applied (V6 & R1)", "result": 196, "unit": "Bu./acre"}, {"measurement": "Azoxystrobin % Yield Increase over 60% Untr.", "setting": "corn [2]; foliar-applied", "result": "+3% Incr."}, {"measurement": "Azoxystrobin % Yield Increase over 100% Untr.", "setting": "corn [2]; foliar-applied", "result": "+4% Incr."}, {"measurement": "Yield", "setting": "corn [2]; sprinkler chemigated (V6 & R1)", "result": 197, "unit": "Bu./acre"}, {"measurement": "Azoxystrobin % Yield Increase over 60% Untr.", "setting": "corn [2]; sprinkler chemigated", "result": "+4% Incr."}, {"measurement": "Azoxystrobin % Yield Increase over 100% Untr.", "setting": "corn [2]; sprinkler chemigated", "result": "+5% Incr."}, {"measurement": "Azoxystrobin % IWUE Increase over Untr./60% irr.", "setting": "corn [3]; chemigated", "result": "+11% over"}, {"measurement": "Azoxystrobin % Yield Increase over Untr./60% irr.", "setting": "corn [3]; chemigated", "result": "+5% over"}, {"measurement": "IWUE (water productivity)", "setting": "corn [3]; chemigated", "result": 515, "unit": "lbs/acre inch"}, {"measurement": "Yield", "setting": "corn [3]; foliar applied (V6 & R1)", "result": 239, "unit": "Bu./acre"}, {"measurement": "Azoxystrobin % IWUE Increase over Untr./60% irr.", "setting": "corn [3]; foliar applied", "result": "+16% over"}, {"measurement": "Azoxystrobin % Yield Increase over Untr./60% irr.", "setting": "corn [3]; foliar applied", "result": "+7% over"}, {"measurement": "IWUE (water productivity)", "setting": "corn [3]; foliar applied", "result": 540, "unit": "lbs/acre inch"}, {"measurement": "Yield", "setting": "corn [3]; sprinkler chemigated (V6 & R1)", "result": 236, "unit": "Bu./acre"}]}]}
